Literature values in US5872104A, “Combinations and methods for reducing antimicrobial resistance” (Oridigm Corporation, priority 1994, dated 1999).
Values after ≈ are worked out from the molar mass of the structure shown. “Also recorded” adds a separate entry of the source. Like-named read-outs stand apart in the source and are kept apart here.

What was measured:
[1] = system: anaerobic bacteria; conditions: cited from earlier work
[2] = system: Brucella canis; conditions: 2×10 mg/kg; cited from earlier work
[3] = system: Campylobacter species; conditions: in µg/mL; cited from earlier work
[4] = system: Streptococcus pyogenes (group A), erythromycin susceptible; conditions: cited from earlier work
[5] = system: Clostridium perfringens; conditions: anaerobes; in µg/mL; cited from earlier work
[6] = system: Listeria monocytogenes; conditions: in µg/mL; cited from earlier work
[7] = system: Moraxella catarrhalis; conditions: in µg/mL; cited from earlier work
[8] = system: Streptococcus pneumoniae; conditions: in µg/mL; cited from earlier work
[9] = system: Viridans streptococci; conditions: cited from earlier work
[10] = versus erythromycin; cited from earlier work
[11] = system: Bacteroides fragilis; conditions: anaerobes; in µg/mL; cited from earlier work
[12] = system: Streptococcus agalactactiae (group B); conditions: in µg/mL; cited from earlier work
[13] = system: Staphylococcus aureus, methicillin resistant; conditions: cited from earlier work
[14] = system: Neisseria gonorrhoeae; conditions: in µg/mL; cited from earlier work
[15] = system: H. influenzae; conditions: versus erythromycin; cited from earlier work
[16] = system: Chlamydia trachomatis; conditions: in µg/mL; cited from earlier work
[17] = system: Mycoplasma pneumoniae; conditions: in µg/mL; cited from earlier work
[18] = system: Legionella pneumophila; conditions: in µg/mL; cited from earlier work
[19] = system: Haemophilus influenzae; conditions: in µg/mL; cited from earlier work
[20] = system: Chlamydia pneumoniae (formerly TWAR); conditions: in µg/mL; cited from earlier work
[21] = system: Staphylococcus aureus, methicillin susceptible; conditions: in µg/mL; cited from earlier work
[22] = system: 28S and 18S rRNA formation; conditions: cited from earlier work
[23] = system: tRNA methylation; conditions: cited from earlier work
[24] = system: Cryptosporidium parvum; conditions: in vivo; cited from earlier work
[25] = system: cutaneous Leishmaniasis; conditions: mouse, in vivo; cited from earlier work
[26] = system: RNA methyltransferases from Streptomyces (S. antibioticus, S. incarnatus, S. griseolus); conditions: cited from earlier work
[27] = system: virion plaque formation; conditions: 10 μM; cited from earlier work
[28] = system: RNA methyltransferase from Streptomyces antibioticus; conditions: 50 μM; cited from earlier work
[29] = system: vaccinia virion mRNA(guanine-7)methyltransferase; conditions: cited from earlier work
[30] = system: Newcastle disease virion mRNA(guanine-7-)methyltransferase; conditions: cited from earlier work
[31] = system: cellular toxicity; conditions: cited from earlier work
[32] = system: rRNA of S. cerevisiae; conditions: cited from earlier work
[33] = system: DNA methylases from S. antibioticus; conditions: non-sinefungin producer; cited from earlier work
[34] = system: S. antibioticus; conditions: cited from earlier work
[35] = system: vaccinia virion mRNA(nucleoside-2'-)methyltransferase; conditions: cited from earlier work
[36] = 1 mg/kg/day for 5 days; cited from earlier work
[37] = system: lysosomal ADA; conditions: 0.02 mM; cited from earlier work
[38] = system: adenosine deaminase; conditions: cited from earlier work
[39] = system: neoplastic cells; conditions: cited from earlier work
[40] = system: Streptococcus faecalis; conditions: elevated pressures; cited from earlier work
[41] = system: rat leukemia (BNML); conditions: nitrous oxide plus cycloleucine; cited from earlier work
[42] = prolonged exposure to clinical concentrations; cited from earlier work
[43] = system: methionine synthetase; conditions: cited from earlier work
[44] = system: E. coli; conditions: elevated pressures; cited from earlier work
[45] = system: Salmonella typhimurium; conditions: elevated pressures; cited from earlier work
[46] = system: S. aureus; conditions: elevated pressures; cited from earlier work

In the case of `CCC[C@@H]1C[C@@H](C(=O)N[C@@H]([C@H]2O[C@H](SC)[C@H](O)[C@@H](O)[C@H]2O)[C@H](C)Cl)N(C)C1` [clindamycin], the “activity against anaerobic bacteria” value [1] is listed as “potent against anaerobic bacteria”.

In the case of `[H]/N=C(/N)N[C@H]1[C@H](O)[C@@H](O)[C@H](O[C@@H]2O[C@@H](C)[C@](O)(C=O)[C@H]2O[C@@H]2O[C@@H](CO)[C@H](O)[C@@H](O)[C@@H]2NC)[C@@H](N/C(N)=N\[H])[C@@H]1O` [streptomycin], the surviving bacteria [2] is listed as “only a minor reduction in the number of surviving bacteria”.

In the case of `CC[C@H]1OC(=O)[C@H](C)[C@@H](O[C@H]2C[C@@](C)(OC)[C@@H](O)[C@H](C)O2)[C@H](C)[C@@H](O[C@@H]2O[C@H](C)C[C@H](N(C)C)[C@H]2O)[C@](C)(OC)C[C@@H](C)C(=O)[C@H](C)[C@@H](O)[C@]1(C)O` [Clarithromycin], the MIC90 [3] is listed as 1.0-8.0, the MIC90 [4] is listed as 0.015 µg/mL (≈ 0.0201 µM) and the MIC90 [5] is listed as 0.5-2.0. The MIC90 [6] was 0.12-2.0, the MIC90 [7] was 0.25-1.0 and the MIC90 [8] was 0.015. The MIC90 [9] was 0.03 µg/mL (≈ 0.0401 µM), the stability [10] was “better stability properties” and the MIC90 [11] was 2.0-8.0. For the same compound, the MIC90 [12] was 0.03-0.25, the MIC90 [13] was > 128 µg/mL and the MIC90 [14] was 0.25-2.0. The H. influenzae activity [15] was “enhanced H. influenzae activity”, the MIC90 [16] was 0.06-0.125 and the MIC90 [17] was 0.008-0.03. The MIC90 [18] was 0.25, the MIC90 [19] was 2.0-16.0 and the MIC90 [20] was 0.007. For the same compound, the MIC90 [21] was 0.12-0.24.

In the case of `Nc1ncn([C@@H]2O[C@H](CO)[C@@H](O)[C@H]2O)c(=O)n1` [5-Azacitidine], the “formation of 28S and 18S RNA” value [22] is listed as “severely inhibited”.

For `Nc1ncnc2c1ncn2[C@@H]1O[C@H](C[C@@H](N)CC[C@H](N)C(=O)O)[C@@H](O)[C@H]1O` [sinefungin], the “inhibition of methylation by base” value [23] is given as “inhibits the methylation of adenine or guanine to a greater extent than cytosine in tRNA”, the “inhibition of methylation by base” value ([23]; listed as Sinefungin) is given as “very strongly inhibits the methylation of G in position 2 and 7, and that of A in position 1 and 6” and the “usable dosage in rat model” value [24] is given as 10 mg/kg/day. The optimum dosage [25] was 4 mg/kg/day, the “optimum dosage: times lower than the LD50” value [25] was 50 times and the “inhibition of RNA methyltransferases” value [26] was “strongly inhibit RNA methyltransferases; also recorded: inhibited RNA methyltransferase”. For the same compound, the “inhibition of virion plaque formation” value [27] was “significant inhibition of virion plaque formation”, the inhibition [28] was 96% and the inhibition ([29]; 100 μM) was 100%. For the same compound, the inhibition [29] was “potent inhibitors”, the inhibition [30] was “potent inhibitors” and the cellular toxicity ([31]; 10 μM) was “no cellular toxicity was detected”. For the same compound, the cellular toxicity ([31]; higher concentrations (above 10 μM)) was “significant cellular toxicity”, the “rRNA methylation / stable 18S rRNA” value [32] was “inhibits methylation of rRNA in S.cerevisiae and leads to a decrease in stable 18S rRNA” and the “inhibition of DNA methylases” value [33] was “noticeably inhibited”. The sporulation [34] was “inhibits sporulation”, the “synthesis of DNA methyltransferases” value [34] was “didn't inhibit the synthesis of DNA methyltransferases” and the inhibition [35] was “potent inhibitors”.

In the case of `OC[C@H]1O[C@@H](n2cnc3c2NC=NC[C@H]3O)C[C@@H]1O` [2'-deoxyconformycin (pentostatin)], the tolerability in patients [36] is given as “minimal distress”, the “inhibition of lysosomal ADA” value [37] is given as > 97% and the ADA inhibition [38] is given as “potent inhibitors of ADA”. For the same compound, the “safe and effective low weekly dose (protracted ADA inhibition in neoplastic cells)” value [39] was 0.13 mg/kg.

For `[N-]=[N+]=O` [nitrous oxide], the inhibition of bacteria [40] is listed as “inhibited”, the growth inhibiting effects [41] is listed as “synergistic growth inhibiting effects” and the “adverse effects of prolonged exposure” value [42] is listed as “inhibits cellular proliferation and can lead to megaloblastic anemia, leukopenia, and thrombocytopenia”. For the same compound, the methionine synthetase [43] was “inhibiting methionine synthetase”, the inhibition of bacteria [44] was “inhibited” and the inhibition of bacteria [45] was “inhibited”. For the same compound, the inhibition of bacteria [46] was “inhibited”.
